Source: PubChem BioAssay AID1963867 (Molecular Pharmacology Branch, DTP, NCI, 2024)
pIC50: −log10 of the molar value.

Test system: KRAS-mutant PDC tumor spheroid with HUVEC/MSC, viability
Experiment: Anticancer human tumor 327498-153-R-J2-PDC patient-derived uterine carcinosarcoma cell line growth inhibition [KRAS2]
Conditions: for viability, T/C: stronger effect = lower value
In short: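 Combination screen of spheroid viability in tumor-cell co-cultures with endothelial (HUVEC) and mesenchymal stem cell stroma. Each agent was tested in half-log dilutions, topping at clinical Cmax or at 10 microM without a known Cmax.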

[1] = curve of first compound, second compound 0.1 µM
[2] = curve of first compound, second compound 0.316 µM
[3] = curve of first compound, second compound 1 µM
[4] = curve of first compound, second compound 3.16 µM
[5] = curve of first compound, second compound 10 µM
[6] = second compound 0.1 µM, first compound 0.000316 µM
[7] = second compound 0.1 µM, first compound 0.001 µM
[8] = second compound 0.1 µM, first compound 0.00316 µM
[9] = second compound 0.1 µM, first compound 0.01 µM
[10] = second compound 0.1 µM, first compound 0.0316 µM
[11] = second compound 0.1 µM, first compound 0.1 µM
[12] = second compound 0.316 µM, first compound 0.000316 µM
[13] = second compound 0.316 µM, first compound 0.001 µM
[14] = second compound 0.316 µM, first compound 0.00316 µM
[15] = second compound 0.316 µM, first compound 0.01 µM
[16] = second compound 0.316 µM, first compound 0.0316 µM
[17] = second compound 0.316 µM, first compound 0.1 µM
[18] = second compound 1 µM, first compound 0.000316 µM
[19] = second compound 1 µM, first compound 0.001 µM
[20] = second compound 1 µM, first compound 0.00316 µM
[21] = second compound 1 µM, first compound 0.01 µM
[22] = second compound 1 µM, first compound 0.0316 µM
[23] = second compound 1 µM, first compound 0.1 µM
[24] = second compound 3.16 µM, first compound 0.000316 µM
[25] = second compound 3.16 µM, first compound 0.001 µM
[26] = second compound 3.16 µM, first compound 0.00316 µM
[27] = second compound 3.16 µM, first compound 0.01 µM
[28] = second compound 3.16 µM, first compound 0.0316 µM
[29] = second compound 3.16 µM, first compound 0.1 µM
[30] = second compound 10 µM, first compound 0.000316 µM
[31] = second compound 10 µM, first compound 0.001 µM
[32] = second compound 10 µM, first compound 0.00316 µM
[33] = second compound 10 µM, first compound 0.01 µM
[34] = second compound 10 µM, first compound 0.0316 µM
[35] = second compound 10 µM, first compound 0.1 µM
[36] = second compound 0.1 µM, first compound 0.316 µM
[37] = second compound 0.1 µM, first compound 1 µM
[38] = second compound 0.1 µM, first compound 3.16 µM
[39] = second compound 0.316 µM, first compound 0.316 µM
[40] = second compound 0.316 µM, first compound 1 µM
[41] = second compound 0.316 µM, first compound 3.16 µM
[42] = second compound 1 µM, first compound 0.316 µM
[43] = second compound 1 µM, first compound 1 µM
[44] = second compound 1 µM, first compound 3.16 µM
[45] = second compound 3.16 µM, first compound 0.316 µM
[46] = second compound 3.16 µM, first compound 1 µM
[47] = second compound 3.16 µM, first compound 3.16 µM
[48] = second compound 10 µM, first compound 0.316 µM
[49] = second compound 10 µM, first compound 1 µM
[50] = second compound 10 µM, first compound 3.16 µM
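Also: spheroids exposed to agents for seven days before reading.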
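For viability, T/C in this document: 100% = DMSO vehicle wells so lower means fewer viable cells.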

## CC(C)n1nc(-c2ccc3oc(N)nc3c2)c2c(N)ncnc21 + CC1OCC2(CCN(c3cnc(Sc4ccnc(N)c4Cl)c(N)n3)CC2)C1N
[1]
  pIC50: 8.66
[2]
  pIC50: 9.12
[3]
  pIC50: > 9.50
[4]
  pIC50: > 9.50
[5]
  pIC50: > 9.50
[6]
  viability, T/C: 70.3%
[7]
  viability, T/C: 72.7%
[8]
  viability, T/C: 38.3%
[9]
  viability, T/C: 18.5%
[10]
  viability, T/C: 8.54%
[11]
  viability, T/C: 5.56%
[12]
  viability, T/C: 61.8%
[13]
  viability, T/C: 46%
[14]
  viability, T/C: 28.2%
[15]
  viability, T/C: 14.3%
[16]
  viability, T/C: 6.36%
[17]
  viability, T/C: 4.27%
[18]
  viability, T/C: 41.2%
[19]
  viability, T/C: 32.8%
[20]
  viability, T/C: 20%
[21]
  viability, T/C: 10.4%
[22]
  viability, T/C: 6.01%
[23]
  viability, T/C: 3.72%
[24]
  viability, T/C: 31.4%
[25]
  viability, T/C: 22.6%
[26]
  viability, T/C: 13.8%
[27]
  viability, T/C: 8.15%
[28]
  viability, T/C: 4.67%
[29]
  viability, T/C: 3.18%
[30]
  viability, T/C: 22.9%
[31]
  viability, T/C: 19.6%
[32]
  viability, T/C: 11.7%
[33]
  viability, T/C: 7.42%
[34]
  viability, T/C: 4.21%
[35]
  viability, T/C: 3.29%

## CC(=O)OC12COC1CC(O)C1(C)C(=O)C(O)C3=C(C)C(OC(=O)C(O)C(NC(=O)OC(C)(C)C)c4ccccc4)CC(O)(C(OC(=O)c4ccccc4)C21)C3(C)C (stereo unspecified)
Compound 0.01 µM
  viability, T/C: 8.03% [middle of 5 runs]
Compound 0.0316 µM
  viability, T/C: 6.44% [middle of 5 runs]
Compound 0.1 µM
  viability, T/C: 6.83% [middle of 5 runs]
Compound 0.316 µM
  viability, T/C: 7.35% [middle of 5 runs]
Compound 1 µM
  viability, T/C: 10.6% [middle of 5 runs]
Compound 3.16 µM
  viability, T/C: 12.8% [middle of 5 runs]
Curve of compound
  pIC50: > 8.00

## CC(=O)OC12COC1CC(O)C1(C)C(=O)C(O)C3=C(C)C(OC(=O)C(O)C(NC(=O)OC(C)(C)C)c4ccccc4)CC(O)(C(OC(=O)c4ccccc4)C21)C3(C)C (stereo unspecified) + CNCc1ccccc1-c1csc(C(C)Nc2nc(C)nc3cc(OC)c(OC)cc23)c1
[1]
  pIC50: > 8.00
[2]
  pIC50: > 8.00
[3]
  pIC50: > 8.00
[4]
  pIC50: > 8.00
[5]
  pIC50: > 8.00
[9]
  viability, T/C: 7.46%
[10]
  viability, T/C: 5.57%
[11]
  viability, T/C: 5.61%
[36]
  viability, T/C: 7.57%
[37]
  viability, T/C: 8.63%
[38]
  viability, T/C: 13.1%
[15]
  viability, T/C: 7.41%
[16]
  viability, T/C: 5.76%
[17]
  viability, T/C: 8.79%
[39]
  viability, T/C: 6.37%
[40]
  viability, T/C: 9.11%
[41]
  viability, T/C: 10.8%
[21]
  viability, T/C: 9.89%
[22]
  viability, T/C: 6.01%
[23]
  viability, T/C: 6.6%
[42]
  viability, T/C: 7.2%
[43]
  viability, T/C: 11%
[44]
  viability, T/C: 10.6%
[27]
  viability, T/C: 8.09%
[28]
  viability, T/C: 0.04%
[29]
  viability, T/C: 0.03%
[45]
  viability, T/C: 0.04%
[46]
  viability, T/C: 0.48%
[47]
  viability, T/C: 10.4%
[33]
  viability, T/C: 0.78%
[34]
  viability, T/C: 0.42%
[35]
  viability, T/C: 2.08%
[48]
  viability, T/C: 0.12%
[49]
  viability, T/C: 10.2%
[50]
  viability, T/C: 0.25%

## CCN1CCN(Cc2ccc(Nc3ncc(F)c(-c4cc(F)c5nc(C)n(C(C)C)c5c4)n3)nc2)CC1
Compound 0.00316 µM
  viability, T/C: 88.7% [middle of 5 runs]
Compound 0.01 µM
  viability, T/C: 81.7% [middle of 5 runs]
Compound 0.0316 µM
  viability, T/C: 65.9% [middle of 5 runs]
Compound 0.1 µM
  viability, T/C: 61% [middle of 5 runs]
Compound 0.316 µM
  viability, T/C: 59.6% [middle of 5 runs]
Compound 1 µM
  viability, T/C: 58.9% [middle of 5 runs]
Curve of compound
  pIC50: < 6.00

## C=CC(=O)N1CCN(c2nc(OCC3CCCN3C)nc3c2CCN(c2cccc4cccc(C)c24)C3)CC1CC#N (stereo unspecified)
Compound 0.316 µM
  viability, T/C: 57.6% [middle of 16 runs]
Compound 1 µM
  viability, T/C: 49.2% [middle of 17 runs]

## CC(=O)Nc1cccc(-n2c(=O)n(C3CC3)c(=O)c3c(Nc4ccc(I)cc4F)n(C)c(=O)c(C)c32)c1 + C=CC(=O)N1CCN(c2nc(=O)n(-c3c(C)ccnc3C(C)C)c3nc(-c4c(O)cccc4F)c(F)cc23)C(C)C1
[1]
  pIC50: 8.22
[2]
  pIC50: 8.45
[3]
  pIC50: 8.31
[4]
  pIC50: 8.62
[5]
  pIC50: > 10.00
Second compound 0.1 µM, first compound 0.0001 µM
  viability, T/C: 70.5%
[6]
  viability, T/C: 60.1%
[7]
  viability, T/C: 61.5%
[8]
  viability, T/C: 57.9%
[9]
  viability, T/C: 45.2%
[10]
  viability, T/C: 16.2%
Second compound 0.316 µM, first compound 0.0001 µM
  viability, T/C: 65.7%
[12]
  viability, T/C: 67.2%
[13]
  viability, T/C: 57.6%
[14]
  viability, T/C: 51.5%
[15]
  viability, T/C: 37.7%
[16]
  viability, T/C: 14.5%
Second compound 1 µM, first compound 0.0001 µM
  viability, T/C: 60%
[18]
  viability, T/C: 63%
[19]
  viability, T/C: 56.3%
[20]
  viability, T/C: 53.1%
[21]
  viability, T/C: 44.4%
[22]
  viability, T/C: 13.3%
Second compound 3.16 µM, first compound 0.0001 µM
  viability, T/C: 60.7%
[24]
  viability, T/C: 57.2%
[25]
  viability, T/C: 54.5%
[26]
  viability, T/C: 49.4%
[27]
  viability, T/C: 31.9%
[28]
  viability, T/C: 15.3%
Second compound 10 µM, first compound 0.0001 µM
  viability, T/C: 46.5%
[30]
  viability, T/C: 47.7%
[31]
  viability, T/C: 45.1%
[32]
  viability, T/C: 41.2%
[33]
  viability, T/C: 24.1%
[34]
  viability, T/C: 13.4%

## COc1cc2nccc(Oc3ccc(NC(=O)C4(C(=O)Nc5ccc(F)cc5)CC4)cc3)c2cc1OC + COc1cc2nc(C)nc(NC(C)c3cc(N)cc(C(F)(F)F)c3)c2cc1OC1CCOC1
[1]
  pIC50: 6.16
[2]
  pIC50: 6.27
[3]
  pIC50: 6.42
[4]
  pIC50: 6.41
[5]
  pIC50: > 7.50
[10]
  viability, T/C: 73.8%
[11]
  viability, T/C: 82.3%
[36]
  viability, T/C: 74.6%
[37]
  viability, T/C: 26.7%
[38]
  viability, T/C: 0.88%
Second compound 0.1 µM, first compound 10 µM
  viability, T/C: 87%
[16]
  viability, T/C: 68.3%
[17]
  viability, T/C: 60.8%
[39]
  viability, T/C: 64.5%
[40]
  viability, T/C: 28.7%
[41]
  viability, T/C: 0.85%
Second compound 0.316 µM, first compound 10 µM
  viability, T/C: 68.5%
[22]
  viability, T/C: 62.9%
[23]
  viability, T/C: 54%
[42]
  viability, T/C: 53.9%
[43]
  viability, T/C: 22.9%
[44]
  viability, T/C: 0.96%
Second compound 1 µM, first compound 10 µM
  viability, T/C: 63.1%
[28]
  viability, T/C: 62.5%
[29]
  viability, T/C: 57.3%
[45]
  viability, T/C: 54.2%
[46]
  viability, T/C: 22.1%
[47]
  viability, T/C: 0.52%
Second compound 3.16 µM, first compound 10 µM
  viability, T/C: 67.3%
[34]
  viability, T/C: 50.6%
[35]
  viability, T/C: 44.8%
[48]
  viability, T/C: 40.5%
[49]
  viability, T/C: 12.1%
[50]
  viability, T/C: 0.37%
Second compound 10 µM, first compound 10 µM
  viability, T/C: 57.9%
